The values below come from patent publication EP2386565A2, “Compounds and methods to inhibit or augment an inflammatory response” (Cambridge Enterprise Ltd., priority 1999, dated 2000).

Non-standard residues stand in square brackets, D forms with d. Residues, ends and D or L forms follow the SMILES beside them. No end group written: not given here.

Assay [1] has as its target T1, Duffy Antigen Receptor for Chemokines (DARC) (Homo sapiens, UniProt Q16570).
T1 sequence (Q16570 1-336): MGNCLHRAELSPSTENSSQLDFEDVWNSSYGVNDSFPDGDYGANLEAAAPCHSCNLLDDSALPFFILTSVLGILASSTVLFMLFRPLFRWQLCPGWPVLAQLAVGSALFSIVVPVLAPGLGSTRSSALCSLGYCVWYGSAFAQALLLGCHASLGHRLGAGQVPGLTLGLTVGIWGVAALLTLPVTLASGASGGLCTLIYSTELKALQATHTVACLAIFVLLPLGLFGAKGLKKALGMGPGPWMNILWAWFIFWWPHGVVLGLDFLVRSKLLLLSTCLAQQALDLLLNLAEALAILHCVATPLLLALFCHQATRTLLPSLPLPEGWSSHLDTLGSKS
Briefly: DARC binding: competition with 125I-MCP-1 on red blood cells. The conditions noted are these: for DARC binding (µM): ns = not significantly different from control, >100 = not determined.

For assay [2], the system named is chemokine-induced THP-1 migration. Briefly: THP-1 trans-well migration assay, several chemokines together (averages, selectivity, pan-chemokine statements). It is filed as cell-based, human. The conditions noted are these: average inhibitory ED50 for THP-1 migration induced by each of the chemokines. On the procedure:
To determine whether an agent inhibits a chemokine-induced activity, such as macrophage recruitment, varying amounts of the agent are mixed with cells in the presence of a known chemoattractant. […] Chemokine (such as MCP-1, MIP1α, IL8 or SDF-1α), at a concentration known to cause significant migration of THP-1 cells in the trans-well migration assay, is placed in the lower compartment (Figure 1). Cells are then incubated at 37°C for a period sufficient to allow migration, e.g., 4 hours. After incubation, the cells are gently removed from the top of the filter with a pipette, 20 µl of 20 mM EDTA in simple PBS is added into each top well, and incubated for 20 minutes at 4°C. The filter is carefully flushed with media using a gentle flow, and removed. […] The media is carefully aspirated from each well, and the converted dye is solubilized by 20 µl of DMSO.
Chemotaxis was induced in a 96-well disposable chemotaxis chamber fitted with a 5 µM polycarbonate filter (PVP free, ChemoTX, Neuroprobe Inc., Cabin John). […] The framed filter was aligned with the holes in the corner of the filter frame and placed over the wells.
Peptides were dissolved in Milli Q water and then serially diluted in culture medium. In most cases, the serially diluted peptides were added to the upper compartment of the chemotaxis chamber. The chamber was incubated at 37°C in a humidified atmosphere of 5% CO2 for 4 hours.
After incubation, the cells were gently removed from the top of the filter with a pipette, 20 µl of 20 mM EDTA in PBS was added into each top well, and the mixture was incubated for 20 minutes at 4°C. The filter was then carefully flushed with media using a gentle flow, and removed. […] The curve was based on a two-fold dilution series of THP-1 cells (top standard 100,000 cells in 29 µl). […] The media was carefully aspirated from each well, and the converted dye was solubilized by 20 µl of DMSO.
Representative chemokines included […] ("CC"), MIP-1α and RANTES, and two alpha-chemokines ("CXC"), IL-8 and SDF-1α. Additionally, to determine the specificity ofpeptide 3(1-12)[MCP-1]
The number of pluses is a qualitative indicating of the activity of each peptide in each assay.

In assay [3] the test system is MIP1α induced THP-1 migration. Kind of assay: THP-1 trans-well migration assay, MIP1α as chemoattractant. It is filed as cell-based, human. The conditions noted are these: inhibition of THP-1 migration; n.s./ns = not statistically significant. On the procedure:
(§1) To determine whether an agent inhibits a chemokine-induced activity, such as macrophage recruitment, varying amounts of the agent are mixed with cells in the presence of a known chemoattractant. For example, a range of known concentrations of an agent, e.g., a chemokine peptide, is incubated with a defined number (e.g., 10^4 - […]) of human THP-1 monocyte cells in individual wells of the top compartment of a trans-well plate. Chemokine (such as MCP-1, MIP1α, IL8 or SDF-1α), at a concentration known to cause significant migration of THP-1 cells in the trans-well migration assay, is placed in the lower compartment (Figure 1). Cells are then incubated at 37°C for a period sufficient to allow migration, e.g., 4 hours. After incubation, the cells are gently removed from the top of the filter with a pipette, 20 µl of 20 mM EDTA in simple PBS is added into each top well, and incubated for 20 minutes at 4°C. The filter is carefully flushed with media using a gentle flow, and removed. A standard curve consisting of a two-fold dilution series of THP-1 cells (in 29 µl) is prepared to accurately quantify the number of cells that have migrated. Migrated cells are stained with 3 µl of MTT stock dye solution which is added directly into each well (5 mg/ml in RPMI-1640 without phenol red, Sigma Chemical Co.) and incubated at 37°C for 4 hours. The media is carefully aspirated from each well, and the converted dye is solubilized by 20 µl of DMSO. Absorbance of converted dye is measured at a wavelength of 595 nm using an ELISA plate reader. The number of migrated cells in each well is then determined by interpolation of the standard curve (see also Imai et al.,J. Biol. Chem., 272, 15036 (1997)).
(§2) For this assay, THP-1 cells were maintained at a density of 4 × 10^5 cells per ml in RPMI-1640 supplemented with 10% fetal calf serum + 20 µM 2-mercaptoethanol. Chemotaxis was induced in a 96-well disposable chemotaxis chamber fitted with a 5 µM polycarbonate filter (PVP free, ChemoTX, Neuroprobe Inc., Cabin John). Twenty-nine µl of chemoattractant (recombinant human chemokine; 50 ng/ml, i.e., 5.9 nM) or control (100 ng/ml TGFβ) was added to the lower compartment of each well. The framed filter was aligned with the holes in the corner of the filter frame and placed over the wells.
(§3) Five × 10^4 THP-1 cells in 25 µl of RPMI-1640 were added to the upper compartment. Peptides were dissolved in Milli Q water and then serially diluted in culture medium. In most cases, the serially diluted peptides were added to the upper compartment of the chemotaxis chamber. The chamber was incubated at 37°C in a humidified atmosphere of 5% CO2 for 4 hours.
(§4) After incubation, the cells were gently removed from the top of the filter with a pipette, 20 µl of 20 mM EDTA in PBS was added into each top well, and the mixture was incubated for 20 minutes at 4°C. The filter was then carefully flushed with media using a gentle flow, and removed. A standard curve was prepared to accurately quantify the number of THP-1 cells that had migrated. The curve was based on a two-fold dilution series of THP-1 cells (top standard 100,000 cells in 29 µl). Cells which had migrated, and in separate wells, the cells in the standards, were stained with 3 µl of MTT stock solution which was added directly into each well (5 mg/ml in RPMI 1640 without phenol red, Sigma Chemical Co.) and incubated at 37°C for 4 hours. The media was carefully aspirated from each well, and the converted dye was solubilized by 20 µl of DMSO. Absorbance of converted dye was measured at a wavelength of 595 nm using an ELISA plate reader. The number of cells that had migrated in each well was determined by interpolation of the standard curve.
(§5) To investigate the receptor specificity of peptide 3 inhibition, the ED50 was determined for peptide 3(1-12)[MCP-1] (SEQ ID NO:1) inhibition of THP-1 migration induced by chemokines which signal through different receptors than MCP-1 receptors. […]

Assay [4] concerns MCP-1 induced THP-1 migration. Kind of assay: THP-1 trans-well migration assay, MCP-1 as chemoattractant. It is filed as cell-based, human. On the procedure: as §1
Any method suitable for counting cells can be used, for example, counting with a hemocytometer, incubation of the cells with MTT (see above), or FACS analysis. A negative control assay is also performed, using TGF-β or another non-chemokine chemoattractant (e.g., IL1β or TNFα). To assess whether the agent is cytotoxic, the same concentrations of agent are incubated with THP-1 cells. Agents which 1) are not cytotoxic at levels which inhibit migration, 2) are ineffective at inhibiting the negative control-induced migration, and 3) reduce or inhibit chemokine-induced THP-1 migration, are agents which fall within the scope of the invention.
For this assay, THP-1 cells were maintained at a density of 4 × 10^5 cells per ml in RPMI-1640 supplemented with 10% fetal calf serum + 20 µM 2-mercaptoethanol. Chemotaxis was induced in a 96-well disposable chemotaxis chamber fitted with a 5 µM polycarbonate filter (PVP free, ChemoTX, Neuroprobe Inc., Cabin John). […] The framed filter was aligned with the holes in the corner of the filter frame and placed over the wells.
as §3
as §4, with “Absorbance of converted dye was measured at a wavelength of 595 nm using an ELISA plate reader. The number of cells that had migrated in each well was determined by interpolation of the standard curve.” left out

Assay [5] relates to SDF-1α induced THP-1 migration. Kind of assay: THP-1 trans-well migration assay, SDF-1α as chemoattractant. The assay is classed as cell-based, human. Conditions: inhibition of THP-1 migration; n.s./ns = not statistically significant. On the procedure: as §1, §2, §3, §4, §5
A further assay concerns gp120. The conditions noted are these: ns = not significant; >100 = ED50 not determined. The protocol: Binding assays. Cells (either Jurkat T-cells or THP-1 cells) were grown in RPMI 1640 medium supplemented with 10% fetal calf serum, 2 mM glutamine, 20 µM β-mercaptoethanol, 100 U/ml penicillin and 100 µg/ml streptomycin and maintained between 2 × 10^5 and 1 × 10^6 cells/ml. Prior to performing a binding assay, cells were spun out (100 × g; 4 minutes) and washed 3 times in ice-cold PBS. A volume of cell suspension in PBS containing 10^6 cells (for Jurkat cells) or 4 × 10^5 cells (for THP-1 cells) was pipetted into each well of a V-bottom 96-well plate (Gibco BRL) and spun out (100 x g; 4 minutes). Triplicate wells were then resuspended in 100 µl binding medium (PBS pH 7.2 containing 0.1% fatty acid-free bovine serum albumin (BSA)) containing labeled peptide in the presence or absence of various concentrations of unlabeled peptide. The plate was then incubated on ice for 90 minutes. Cells were washed 3 times with 380 µl of ice-cold PBS, spinning out the cells each time (100 × g; 4 minutes), and resuspended in 100 µl binding medium containing streptavidin-peroxidase (Amersham International) at 1:1000 dilution. Cells were incubated for a further 15 minutes on ice to allow labeling of any bound biotinylated peptide, then washed 4 times as above. Cells were then incubated with 200 µl TMB substrate (K-Blue, Bionostics) for 20 minutes at room temperature, and the reaction stopped by addition of 50 µl 2 M HCl. The plate was spun (3,000 × g; 3 minutes) and 200 µl of the colored product was transferred to an empty 96-well ELISA plate and the absorbance at 450 nm determined. For each assay, the absorbance of a blank reaction (no peptide added) was subtracted from all readings before further analysis.
Binding experiments with labeled peptide 2 were performed with 10 nM labeled peptide in each reaction.

As to DYFETSSQC, the “DARC binding (µM)” value in assay [1] is listed as “ns”.

In the case of “CQVWKQKPDAC [LRD-Cys13Leu4Ile11pep3[3-12]]”, the “Average ED50” value in assay [2] is 1000 nM. Moreover, the “Duffy selectivity / DARC specificity ratio” value in assay [1] (estimated ka for binding to red blood cells divided by average inhibitory ED50) is listed as 4.59.

On to DYFETSSQCSKPGV [Pep2[MIP1α]], for which, in assay [1], the “DARC binding (µM)” value is on record as “ns”.

In the case of `CC(C)[C@@H](N)C(=O)NCC(=O)N1CCC[C@@H]1C(=O)N[C@H](CCCCN)C(=O)N[C@H](CO)C(=O)N[C@H](CS)C(=O)N[C@H](CCC(N)=O)C(=O)N[C@H](CO)C(=O)N[C@H](CO)C(=O)N[C@@H](C(=O)N[C@H](CCC(=O)O)C(=O)N[C@H](Cc1ccccc1)C(=O)N[C@H](Cc1ccc(O)cc1)C(=O)N[C@H](CC(=O)O)C(=O)O)[C@H](C)O` [vgpkscqsstefyd] (H-[dV]G[dP][dK][dS][dC][dQ][dS][dS][dT][dE][dF][dY][dD]-OH), the “DARC binding (µM)” value in assay [1] is listed as “ns”.

As for TSSKC [TSSKC], the “DARC binding (µM)” value in assay [1] is recorded as “ns”.

Take SYRRI [SYRRI]: in assay [1], the “DARC binding (µM)” value was “ns”.

`CC[C@@H](C)[C@@H](NC(=O)[C@H](NC(=O)[C@@H](CO)NC(=O)[C@@H](CO)NC(=O)[C@@H](CCCCN)NC(=O)[C@@H](CS)NC(=O)[C@H]1CCCN1C(=O)[C@@H](CCCCN)NC(=O)[C@@H](CCC(=O)O)NC(=O)[C@@H](C)NC(=O)[C@H](N)C(C)C)[C@H](C)O)C(=O)N[C@H](CCCNC(=N)N)C(=O)N[C@H](CCCNC(=N)N)C(=O)N[C@H](Cc1ccc(O)cc1)C(=O)N[C@H](CO)C(=O)O` [LRD peptide 2(1-15)[MCP-1], Vaekpcksstirrys] (H-[dV][dA][dE][dK][dP][dC][dK][dS][dS][dT][dI][dR][dR][dY][dS]-OH; N-terminus and C-terminus assumed): the “ED50 (µM) versus MIP1α” value in assay [3] is on record as “ns”. In assay [4] (inhibition of THP-1 migration, n.s./ns = not statistically significant), the “ED50 (µM) versus MCP-1” value was “ns”. The “ED50 (µM) versus SDF-1α” value in assay [5] is listed as “ns”. For the same compound, the “gp120 ED-50” value in the assay with gp120 was 3 µM.

Consider CSKPGV [CSKPGV], for which, in assay [1], the “DARC binding (µM)” value is on record as “ns”.

Consider “CLDPKQKWIQC [unlabeled peptide, non-labeled version of the biotinylated peptide]”, for which the “ED50 for inhibition of MCP-1 induced migration” value in assay [4] (MCP-1 at 100 ng/ml in RPMI 1640 + 10% FCS, 4 hours, 5 µm filter) is recorded as “about 9 µM”.
